The test system of series [1] is BVDV. Kind of series: BVDV inactivation in spiked RBCC by doxorubicin alone. Type of series: cell-based, Bovine Viral Diarrhea Virus. The settings on record: for Unwashed Titer / Washed Titer: 37° C. 2 hours in the dark; for Unwashed Titer: doxorubicin Low = 0.53 mM, High = 1.6 mM; for Combined VRF: treatment plus washing, compared to mean unwashed RBC controls; for Unwashed VRF: compared to mean titer of untreated RBC controls; for Washed VRF: compared to mean titer of washed untreated RBC controls. How it is done: Two levels of doxorubicin (low and high), RBCC, virus and DMEM (—Ca^++, —Mg^++) were prepared to all contain equivalent titers of BVDV calculated to be 6.23 log10 TCID50/mL (logs) based on the titer of the original virus stock.
The components were mixed and incubated at 37° C. for 2 hours in the dark followed by titration of unwashed and washed samples as previously described. Washing rows of wells with dilutions 1 and 2 was performed the next day. Final CPE were read 2 weeks post-infection. Cells were also monitored for cytotoxicity from the treatment components other than the virus 1 day and 2 weeks post-infection as in previous experiments.
The various combinations tested, the titers obtained and the calculated VRFs compared to the mean titer of the untreated RBC controls are listed in Table 4. There was no hemolysis or clumping for any of the samples at the end of the treatment period.

Series [2] deals with Human Adenovirus-2 (HAd-2). Kind of series: Earlier inactivation of HAd-2 in unwashed RBCC samples. Type of series: cell-based. As to conditions: doxorubicin alone, observed previously.
Series [3] has as its system BVDV. Briefly: BVDV inactivation in spiked human RBCC by hypericin with luciferase system. Format: cell-based, Bovine Viral Diarrhea Virus. The settings on record: for Unwashed Titer / Washed Titer: RT 2 hours in the dark; for Unwashed Titer / Unwashed VRF: unwashed samples; for Unwashed Titer: doses per sample label; for Washed Titer / Washed VRF: washed samples; for Combined VRF: treatment plus washing, compared to unwashed untreated RBC control; for Unwashed VRF: compared to titer of untreated RBC control; for Washed VRF: compared to washed untreated RBC control. As to the method:
Ten different combinations of DMEM (—Ca^++, —Mg^++), RBCC, virus, hypericin, Luciferin, ATP and luciferase were prepared to all contain equivalent titers of BVDV calculated to be 6.48 log10TCID50/mL based on the titer of the original virus stock. The concentrations of hypericin tested were 0, 40 and 200 μg/mL. Luciferase was tested at 0, 0.8 and 4.0 μM. Luciferin and ATP were present at 80 and 800 μM respectively when luciferase was present and absent in the absence of luciferase.
The components were mixed and incubated at RT for 2 hours in the dark followed by titration of unwashed and washed samples as previously described. Washing rows of wells with dilutions 1 and 2 was performed 3 days post-infection. Final CPEs were read 10 days post-infection.
The various combinations tested, the titers obtained and the calculated VRFs compared to the titer of the untreated RBC control are listed in Table 2.

The next series relates to RBC. Kind of series: Cytotoxicity, interference, RBC morphology and integrity after hypericin treatment. Format: cell-based. As to the method:
Cytotoxicity and interference studies are performed per CPMP/FDA guidelines to calculate the reduction in viral titers due to these factors and exclude them from the calculated reduction factors resulting from the antiviral treatment. The antiviral compounds are removed from the system by washing the erythrocytes. Appropriate controls are kept to determine the contribution of washing to the viral reduction factors.

As to `COc1cccc2c1C(=O)c1c(O)c3c(c(O)c1C2=O)C[C@@](O)(C(=O)CO)C[C@@H]3O[C@H]1C[C@H](N)[C@H](O)[C@H](C)O1` [Dox-H, Doxorubicin], in the series on BVDV [1], the “Unwashed Titer” value worked out at 3.10 log10 TCID50/mL, the “Washed Titer” value is listed as 3.10 log10 TCID50/mL, the “Combined VRF” value amounted to 2.50 logs and the “Unwashed VRF” value worked out at 2.50 logs. Moreover, the “Washed VRF” value in the series with BVDV [1] is on record as −0.19 logs.
As to `COc1cccc2c1C(=O)c1c(O)c3c(c(O)c1C2=O)C[C@@](O)(C(=O)CO)C[C@@H]3O[C@H]1C[C@H](N)[C@H](O)[C@H](C)O1` [Dox-L, Doxorubicin], in the series with BVDV [1], the “Unwashed Titer” value is given as 3.23 log10 TCID50/mL, the “Washed Titer” value is given as 3.10 log10 TCID50/mL, the “Combined VRF” value is 2.50 logs and the “Unwashed VRF” value is 2.38 logs. For the same compound, the “Washed VRF” value in the series on BVDV [1] is −0.19 logs.
For `COc1cccc2c1C(=O)c1c(O)c3c(c(O)c1C2=O)C[C@@](O)(C(=O)CO)C[C@@H]3O[C@H]1C[C@H](N)[C@H](O)[C@H](C)O1` [Doxorubicin, (1S,3S)-3-glycoloyl-3,5,12-trihydroxy-10-methoxy-6,11-dioxo-1,2,3,4,6,11-hexahydrotetracen-1-yl 3-amino-2,3,6-trideoxy-α-L-lyxo-hexo-pyranoside], the “viral inactivation activity against HAd-2 virus” value in series [2] is recorded as “has viral inactivation activity”. The “viral inactivation activity against BVDV” value in the series with BVDV [1] (doxorubicin treatment alone) was “has viral inactivation activity”.
With `Cc1cc(O)c2c(=O)c3c(O)cc(O)c4c5c(O)cc(O)c6c(=O)c7c(O)cc(C)c8c1c2c(c34)c(c78)c65` [HH-LN, Hypericin], in the series on BVDV [3], the “Unwashed Titer” value worked out at 3.10 log10TCID50/mL, the “Washed Titer” value was 2.48 log10TCID50/mL, the “Combined VRF” value stood at 3.87 logs and the “Unwashed VRF” value turned out to be 3.25 logs. Moreover, the “Washed VRF” value in the series on BVDV [3] was 1.50 logs.
As for `Cc1cc(O)c2c(=O)c3c(O)cc(O)c4c5c(O)cc(O)c6c(=O)c7c(O)cc(C)c8c1c2c(c34)c(c78)c65` [HL-LN, Hypericin], in the series on BVDV [3], the “Unwashed Titer” value turned out to be 3.48 log10TCID50/mL, the “Washed Titer” value is on record as <2.34 log10TCID50/mL, the “Combined VRF” value is >4.01 logs and the “Unwashed VRF” value is 2.87 logs. Also, in the series on BVDV [3], the “Washed VRF” value is >1.64 logs.
For the compound `Cc1cc(O)c2c(=O)c3c(O)cc(O)c4c5c(O)cc(O)c6c(=O)c7c(O)cc(C)c8c1c2c(c34)c(c78)c65` [Hypericin], the “impact on cytotoxicity, interference, RBC morphology and integrity” value with RBC (hypericin 40 μg/mL with CDP-Star 0.1 mM) and in the series with RBC (hypericin 40 μg/mL with luciferase 0.16 μM) was “very little impact” throughout.
